≈ marks a conversion by molar mass, not a printed value.

The results in this text go back to ChEMBL document CHEMBL1130682, “A concise synthesis and in vitro cytotoxicity of new labdane diterpenes” (Bioorg Med Chem Lett, 1998).

Common to all, as to format: functional, cell-based
The test system of one experiment is B16. Description: In vitro cytotoxicity of compound was measured on murine melanoma (B16) cells. Particulars: Mus musculus.
The test system of the next experiment is P388. Description: In vitro cytotoxicity of compound was measured on murine lymphocytic leukemia (P-388) cells. Particulars: Mus musculus.
The next experiment relates to SNU1. Description: In vitro cytotoxicity of compound was measured on human gastric adenocarcinoma (SNU-1) cells.

By IC50 is commonly meant the midpoint of a concentration-inhibition curve. Low values mean inhibition by little substance, high ones a need for much substance. In the case of `C=C1CC[C@H]2C(C)(C)CCC[C@]2(C)[C@H]1CC(O)c1ccoc1` (some centres not stated), the figures for the IC50 in the experiment on B16, in the experiment with P388 and with SNU1 were 47.2 µg/mL (≈ 156 µM), 3.6 µg/mL (≈ 11.9 µM) and 3.9 µg/mL (≈ 12.9 µM), respectively.
On to `C=C1CC[C@H]2C(C)(C)CCC[C@]2(C)[C@H]1C/C=C(\CO)CCO`, for which the IC50 in the experiment with B16 came to 28.9 µg/mL (≈ 94.3 µM); with P388, 6.3 µg/mL (≈ 20.6 µM); in the experiment on SNU1, 8.6 µg/mL (≈ 28.1 µM).
For `C=C1CC[C@H]2C(C)(C)CCC[C@]2(C)[C@H]1C/C=C1/CCOC1=O`, in that order: 7.5 µg/mL (≈ 24.8 µM), 6.7 µg/mL (≈ 22.2 µM) and 19.2 µg/mL (≈ 63.5 µM).
For the compound `C=C1CC[C@H]2C(C)(C)CCC[C@]2(C)[C@H]1C/C=C(/C=O)CC=O`, the figures for the IC50 with B16, with P388 and in the experiment on SNU1 were 41.2 µg/mL (≈ 136 µM), 4.1 µg/mL (≈ 13.6 µM) and 12 µg/mL (≈ 39.7 µM), respectively.
For `CC(=O)O[C@]1(C)CC[C@H]2C(C)(C)CCC[C@]2(C)[C@H]1CC=O`, in that order: 31.9 µg/mL (≈ 108 µM), 6.9 µg/mL (≈ 23.4 µM) and 4.8 µg/mL (≈ 16.3 µM).
For `CC1(C)CCC[C@@]2(C)[C@H]1CCC1(CO1)[C@@H]2C/C=C1/CCOC1=O` (some centres not stated), in that order: 84.5 µg/mL (≈ 265 µM), 12.3 µg/mL (≈ 38.6 µM) and 15.7 µg/mL (≈ 49.3 µM).
As to `CC(=O)O[C@]1(C)CC[C@H]2C(C)(C)CCC[C@]2(C)[C@H]1C/C=C1/CCOC1=O`, the IC50 in the experiment on B16 is 11.3 µg/mL (≈ 31.2 µM); in the experiment on P388 it was 7.8 µg/mL (≈ 21.5 µM); with SNU1 it was 12.3 µg/mL (≈ 33.9 µM).
`C=C1CC[C@H]2C(C)(C)CCC[C@]2(C)[C@H]1CC=O`: the IC50 in the experiment with B16 is 30.8 µg/mL (≈ 131 µM); in the experiment with P388, 0.16 µg/mL (≈ 0.683 µM); in the experiment on SNU1, 3.9 µg/mL (≈ 16.6 µM).
`C=C1[C@H](O)C[C@H]2C(C)(C)CCC[C@]2(C)[C@H]1/C=C/c1ccoc1`: the figures for the IC50 in the experiment with B16, in the experiment on P388 and in the experiment with SNU1 were 27.3 µg/mL (≈ 90.9 µM), 10.3 µg/mL (≈ 34.3 µM) and 4.8 µg/mL (≈ 16 µM), respectively.
For `C=C1CC[C@H]2C(C)(C)CCC[C@]2(C)[C@H]1/C=C/c1ccoc1` [CORONARIN E], the IC50 was determined as 18.8 µg/mL (≈ 66.1 µM) in the experiment on B16, 10 µg/mL (≈ 35.2 µM) in the experiment on P388 and 8 µg/mL (≈ 28.1 µM) with SNU1.
Turning to `COc1cccc2c1C(=O)c1c(O)c3c(c(O)c1C2=O)C[C@@](O)(C(=O)CO)C[C@@H]3O[C@H]1C[C@H](N)[C@H](O)[C@H](C)O1` [DOXORUBICIN], the IC50 is 0.09 µg/mL (≈ 0.166 µM) in the experiment with P388 and 2.15 µg/mL (≈ 3.96 µM) in the experiment on SNU1.
As to `CO[C@@]12[C@H](COC(N)=O)C3=C(C(=O)C(C)=C(N)C3=O)N1C[C@@H]1N[C@@H]12` [MITOMYCIN], the IC50 with P388 stood at 0.06 µg/mL (≈ 0.179 µM); with SNU1 it was 2.32 µg/mL (≈ 6.94 µM).
For `C=C[C@](C)(O)CC[C@@H]1[C@@]2(C)CCCC(C)(C)[C@@H]2CC[C@@]1(C)O` [SCLAREOL], the IC50 turned out to be 28 µg/mL (≈ 90.8 µM) in the experiment with B16, 10.1 µg/mL (≈ 32.7 µM) in the experiment on P388 and 11.9 µg/mL (≈ 38.6 µM) with SNU1.
